Source: US11850266B2, “Cardiomyocytes and compositions and methods for producing the same” (President and Fellows of Harvard College, priority 2019, dated 2023)

Tests used:
Type in all cases: cell-based, human
[1] = system: iPSC-derived cardiomyocytes; experiment: Imaging quantification of proliferating cardiomyocytes (Ki67, phospho-histone H3); conditions: versus control, non-dissociated cells, FIG. 8
Source text: Cardiomyocytes were differentiated in 12 well plates then fixed and stained in the original plates to minimize potential for selection of cells that survive dissociation. Cells were stained with Ki67/TNNT2/DAPI or phospho-H3/TNNT2/DAPI as described in Immunostaining methods. Images were acquired with a fluorescent microscope. Monolayer regions containing TNNT2+ cells were randomly selected from 5 fields of view in the plate with a 10× objective. The particle analysis feature of ImageJ was used to quantify the number of cells per field of view that were positive for DAPI, Ki67, or pH3. To control for variability across samples, a signal threshold of <500 was set DAPI and pH3 (488 nm) channels and a signal threshold of <600 was set for Ki67 ([…]). Particle sizes between 10-1000 pixels^2 were included in the analysis. The percentage of Ki67+ cells or pH3+ cells out of the total number of cells marked by DAPI and TNNT2 was quantified. A chi-squared test was used to evaluate for statistical significance.

[2] = system: iPSC-derived cardiomyocytes; experiment: Voltage (FluoVolt) analysis with Vala Kinetic Image Cytometer
Protocol: Following completion of Torin1 treatment, cardiomyocytes were dissociated as described above then replated at a density of 20,000-30,000 cells per well in a Geltrex-coated Greiner Cellstar black 96 well plate. FluoVolt dye (1:1000 from stock in the FluoVolt Membrane Potential Kit, Thermo) and Hoechst 33258 stain (20 μg/ml) in RPMI1640 (no phenol red) (supplemented with OxyFluor (Oxyrase, 1:100 dilution), 10 mM sodium lactate) were added to each well 15 minutes prior to assay. Cells were electrically stimulated with 15 V at a frequency of 0.5 pulses/sec and a pulse width of 5 msec for 5 pulses using the IC200 Kinetic Image Cytometer (Vala). Images were acquired at 20× and at a frame rate of 70 frames per second. Voltage analysis was performed using the CyteSeer image analysis software, which automatically recognizes Hoechst-stained nuclei, segments, and identifies each cell to quantify voltage data for each cell captured in the field of view (34). Cells were identified by Hoechst-stained nuclei, segmented into individual cells and automatically numbered by CyteSeer software (FIG. 4C). Within each cell, fluorescence intensity was recorded from within a circular region within each numbered, nucleated cell. […] Data from approximately 300-500 individual cells were included for analysis for each condition. Baseline fluorescence was used to normalize for variability in fluorescence intensity between individual cells. The peak rise time, CTD25 (25% duration of the calcium transient, or duration at 25% decline from maximum amplitude), CTD75 (75% duration of the calcium transient, or duration at 75% decline from maximum amplitude), T75-25 (time for voltage to decay from 75% to 25% of maximum), and downstroke velocity were quantified using the CyteSeer image analysis software.

[3] = system: iPSC-derived cardiomyocytes; experiment: Immunocytochemistry, sarcomere length; conditions: versus control, BJRiPS-CMs, FIG. 2H
Protocol: Cells were dissociated from 12 well plates after differentiation with 0.1% trypsin-EDTA and replated into Geltrex-coated 4-chamber microscope slides. Cells were fixed in 4% paraformaldehyde then permeabilized with 0.5% Triton X-100. After blocking with 5% BSA, cells were incubated with primary antibodies (Table 2) for 30 minutes at room temperature followed by incubation with the secondary antibody (Table 2) for 45 minutes at room temperature in the dark. After washing with phosphate buffered saline (PBS), Vectashield mounting agent with DAPI (for slides) or DAPI (for plates) was applied and cells were visualized with a confocal microscope (Zeiss LSM 700). Muscular thin films (MTFs) were stained in a similar manner except DAPI (1 μg/ml) was applied for 5 minutes before rinsing and transferring MTFs into PBS until imaging.

SMILES: CCC(=O)N1CCN(c2ccc(-n3c(=O)ccc4cnc5ccc(-c6cnc7ccccc7c6)cc5c43)cc2C(F)(F)F)CC1 [Torin1]
- percentage of Ki67+ cardiomyocytes [1]: significantly decreased
- percentage of pH3+ cardiomyocytes [1]: did not change
- action potential profile ([2]; FluoVolt, FIG. 4E): longer plateau phase and a sharper upstroke and downstroke
- action potential peak rise time ([2]; UCSD-CMs, FIG. 4F): significant decrease
- downstroke velocity ([2]; UCSD-CMs, FIG. 4G): significant increase
- CTD25 ([2]; UCSD-CMs, FIG. 4H): no changes
- CTD75 ([2]; UCSD-CMs, FIG. 4I): significant decrease
- T75-25 time ([2]; UCSD-CMs, FIG. 4J): significant decrease
- sarcomere length [3]: no differences
